Test results taken from ChEMBL document CHEMBL3885861, “Open TG-GATES”.

Organism: Rattus norvegicus
Experiment: Open TG-GATES - Regimen: Single
Type: toxicity, organism-based, Sprague-Dawley
Parameters: regimen Single, gender Male, age 6 weeks
Conditions: in vivo, po, 300 mg/kg, route gavage, dose level High; for APTT / Bas / Eos / Fbg / Hb / Ht / Lym / MCH / MCHC / MCV / Mono / Neu / PT / Plat / RBC / Ret / WBC: tissue Blood; for KIDNEY_L / KIDNEY_R / KIDNEY_TOTAL: tissue Kidney; for LIVER: tissue Liver; for A/G / ALP / ALT / AST / BUN / CRE / Ca / Cl / DBIL / GLC / IP / K / LDH / Na / PL / RALB / TBIL / TC / TG / TP / gamma-GTP: tissue Plasma

## CCC1(c2ccccc2)C(=O)NC(=O)NC1=O [PHENOBARBITAL]
3 h
  TERMINAL_BW: 225.3 g
  APTT: 22 s
  Bas: 0.2%
  Eos: 1%
  Fbg: 202.2 mg/dL
  Hb: 13.6 g/dL
  Ht: 37.8%
  Lym: 78.6%
  MCH: 21.9 pg
  MCHC: 36%
  MCV: 61.1 fL
  Mono: 2.8%
  Neu: 16.6%
  PT: 12.3 s
  Plat: 122.8 x10_4/uL
  RBC: 619.4 x10_4/ul
  Ret: 7.8%
  WBC: 75.1 x10_2/uL
  KIDNEY_L: 1 g
  KIDNEY_R: 1 g
  KIDNEY_TOTAL: 2.1 g
  LIVER: 10 g
  A/G: 1.6
  ALP: 833 IU/L
  ALT: 40.2 IU/L
  AST: 73 IU/L
  BUN: 8 mg/dL
  CRE: 0.3 mg/dL
  Ca: 10.5 mg/dL
  Cl: 100.6 meq/L
  DBIL: 0.064 mg/dL
  GLC: 183.2 mg/dL
  IP: 10.3 mg/dL
  K: 4.1 meq/L
  LDH: 142 IU/L
  Na: 140.6 meq/L
  PL: 152 mg/dL
  RALB: 3.2 g/dL
  TBIL: 0.1 mg/dL
  TC: 77 mg/dL
  TG: 57.2 mg/dL
  TP: 5.1 g/dL
  gamma-GTP: 0.8 IU/L
6 h
  TERMINAL_BW: 221.9 g
  APTT: 20.5 s
  Bas: 0%
  Eos: 1%
  Fbg: 219 mg/dL
  Hb: 14.2 g/dL
  Ht: 39.1%
  Lym: 76.8%
  MCH: 21.8 pg
  MCHC: 36.3%
  MCV: 60.2 fL
  Mono: 3.4%
  Neu: 17.6%
  PT: 12 s
  Plat: 120.7 x10_4/uL
  RBC: 649.4 x10_4/ul
  Ret: 7.7%
  WBC: 62.8 x10_2/uL
  KIDNEY_L: 1 g
  KIDNEY_R: 1 g
  KIDNEY_TOTAL: 2 g
  LIVER: 9.4 g
  A/G: 1.6
  ALP: 672.6 IU/L
  ALT: 29.2 IU/L
  AST: 58.4 IU/L
  BUN: 8.6 mg/dL
  CRE: 0.3 mg/dL
  Ca: 10.5 mg/dL
  Cl: 100.4 meq/L
  DBIL: 0.07 mg/dL
  GLC: 176 mg/dL
  IP: 9.5 mg/dL
  K: 4.2 meq/L
  LDH: 162.2 IU/L
  Na: 139.2 meq/L
  PL: 142.4 mg/dL
  RALB: 3.2 g/dL
  TBIL: 0.1 mg/dL
  TC: 74.4 mg/dL
  TG: 44.2 mg/dL
  TP: 5.2 g/dL
  gamma-GTP: 1.2 IU/L
9 h
  TERMINAL_BW: 219.7 g
  APTT: 19.3 s
  Bas: 0%
  Eos: 0.8%
  Fbg: 219.4 mg/dL
  Hb: 13.8 g/dL
  Ht: 38.3%
  Lym: 71.8%
  MCH: 22 pg
  MCHC: 36%
  MCV: 60.9 fL
  Mono: 3.6%
  Neu: 22%
  PT: 12.4 s
  Plat: 125.2 x10_4/uL
  RBC: 630.2 x10_4/ul
  Ret: 7.7%
  WBC: 73.7 x10_2/uL
  KIDNEY_L: 1 g
  KIDNEY_R: 1 g
  KIDNEY_TOTAL: 1.9 g
  LIVER: 8.6 g
  A/G: 1.5
  ALP: 558.2 IU/L
  ALT: 35.8 IU/L
  AST: 78 IU/L
  BUN: 9 mg/dL
  CRE: 0.3 mg/dL
  Ca: 10.3 mg/dL
  Cl: 99.6 meq/L
  DBIL: 0.064 mg/dL
  GLC: 186.2 mg/dL
  IP: 9.7 mg/dL
  K: 4.2 meq/L
  LDH: 170.4 IU/L
  Na: 139.4 meq/L
  PL: 137.8 mg/dL
  RALB: 3 g/dL
  TBIL: 0.1 mg/dL
  TC: 74.8 mg/dL
  TG: 29.8 mg/dL
  TP: 5 g/dL
  gamma-GTP: 1 IU/L
24 h
  TERMINAL_BW: 201.5 g
  APTT: 24.3 s
  Bas: 1%
  Eos: 1%
  Fbg: 207 mg/dL
  Hb: 16.1 g/dL
  Ht: 44.2%
  Lym: 82.3%
  MCH: 22 pg
  MCHC: 36.6%
  MCV: 60.1 fL
  Mono: 2.3%
  Neu: 13%
  PT: 12.3 s
  Plat: 145.9 x10_4/uL
  RBC: 735.3 x10_4/ul
  Ret: 6.5%
  WBC: 84.5 x10_2/uL
  KIDNEY_L: 1 g
  KIDNEY_R: 1 g
  KIDNEY_TOTAL: 2 g
  LIVER: 7.7 g
  A/G: 1.6
  ALP: 449.7 IU/L
  ALT: 21 IU/L
  AST: 53 IU/L
  BUN: 9 mg/dL
  CRE: 0.3 mg/dL
  Ca: 10.5 mg/dL
  Cl: 100 meq/L
  DBIL: 0.06 mg/dL
  GLC: 141 mg/dL
  IP: 9 mg/dL
  K: 4.6 meq/L
  LDH: 113.3 IU/L
  Na: 139.3 meq/L
  PL: 100 mg/dL
  RALB: 3.2 g/dL
  TBIL: 0.1 mg/dL
  TC: 58.7 mg/dL
  TG: 13.3 mg/dL
  TP: 5.2 g/dL
  gamma-GTP: 1 IU/L
